Here are results for three compounds from patent US20220305093A1, “NK-LYSIN PEPTIDE COMPOSITIONS AND METHODS FOR THEIR USE AS ANTIMICROBIAL/ANTIVIRAL AGENTS” (priority 2021, published 2022).

Values after ≈ are worked out from the molar mass of the structure shown.

Assay [1] concerns S. typhimurium (ATCC 14028). Type of assay: cell-based, Salmonella typhimurium. As to conditions: discs on MH agar, overnight. The method, then:
Screening of NK-lysin peptides was carried out against gram-negative S. typhimurium (ATCC 14028) bacteria. Overnight cultivation of the bacteria was carried out at a temperature of 3TC. A bacterial suspension was created in 10 mM sodium phosphate buffer pH 7.0 having a density of (2×10^6 CFU ml^−1) and plated on Muller-Hinton (MH) agar plates to inoculate. After the plates were dry, antibiotics discs of various concentrations (0 to 150 μg/ml) of antibiotic or NK-lysin peptides were applied to the surface of the inoculated plates. The plates were cultured overnight at 3TC and observed for restriction of growth by determining the diameter of bacterial-free zones surrounding each disc. Ceftazidime antibiotic was employed as a positive control.

The subject of assay [2] is Escherichia coli (ATCC 11775). Briefly: microbe, parasite or virus in culture. As to conditions: Escherichia coli, ATCC11775. As for the experimental part: (§1) The minimum inhibitory concentration (MIC) is defined as the lowest concentration of an antimicrobial ingredient or agent that is bacteriostatic (prevents the visible growth of bacteria).
(§2) Mueller Hinton broth (MHB) comprising 0.01% v/v acetic acid (Sigma Aldrich; St Louis, Mo.) and 0.2% w/v bovine serum albumin (Sigma Aldrich). Equal concentrations of bacteria were plated in wells of standard tissue culture microplates at a density of 0.5×10^8 CFU ml^−1 in MHB per well. Treatments were equivalent volumes (50 μl) of NK-lysin peptides in concentrations of 0 to 150 μg/ml, or no NK-lysin peptides for control wells. The treated plates were incubated at […] and optical densities were determined for each well at 0 minutes, 1, 2 and 3 hours and after an overnight incubation.

In assay [3] the test system is Klebsiella oxytoca (ATCC 49131). Briefly: microbe, parasite or virus in culture. The method, then:
as §1, §2

The subject of assay [4] is Klebsiella pneumoniae (patient isolate). Nature of the assay: microbe, parasite or virus in culture. As for the experimental part:
as §1, §2

Assay [5] deals with Pseudomonas aeruginosa (ATCC 9027). Briefly: microbe, parasite or virus in culture. The method, then:
as §1, §2

Assay [6] deals with Salmonella typhimurium (ATCC 14028). Briefly: microbe, parasite or virus in culture. As to conditions: Salmonella enterica. As for the experimental part: as §1, §2
Assay [7] has as its system Shigella sonnei (ATCC 25931). Briefly: microbe, parasite or virus in culture. As for the experimental part: as §1, §2
Assay [8] concerns Streptococcus mutans (isolate). Briefly: microbe, parasite or virus in culture. The method, then:
as §1, §2

The test system of assay [9] is Streptococcus pyogenes (ATCC 19615). Nature of the assay: microbe, parasite or virus in culture. As for the experimental part: as §1, §2
In assay [10] the test system is gram-positive and gram-negative bacteria. Nature of the assay: organism not typed. An excerpt: The gram-positive bacterial strains utilized were Streptococcus pyogenes (ATCC 19615) and Streptococcus mutans (isolate obtained from a patient at King Abdul-Aziz hospital). The gram-negative bacterial strains used included Salmonella typhimurium (ATCC 14028), Escherichia coli (ATCC 11775), Pseudomonas aeruginosa (ATCC 9027), Klebsiella oxytoca (ATCC 49131), Shigella sonnei (ATCC 25931), and Klebsiella pneumoniae (patient isolate). Tryptic soy broth (TSB) was used to grow all bacterial strain overnight, after which the bacteria were washed using phosphate-buffered saline (PBS, NaCl 8 g/L, KCl 0.2 g/L, Na2HPO4 1.4 g/L, KH2PO4 0.24 g/L), and then diluted in the same buffer with 1/1000 TSB to an OD600 nm of 0.08-0.1 (1×10^8) colony-forming units (CFU)/ml, which was determined after performing retrospective plate counts on tryptic soy agar. Unless otherwise noted, the experiments in the following examples employed this inoculum preparation apart from when minimum inhibitory and bactericidal concentrations were determined, which employed cells in Muller Hinton broth. […]
Mueller Hinton broth (MHB) comprising 0.01% v/v acetic acid (Sigma Aldrich; St Louis, Mo.) and 0.2% w/v bovine serum albumin (Sigma Aldrich). […] The treated plates were incubated at […] and optical densities were determined for each well at 0 minutes, 1, 2 and 3 hours and after an overnight incubation. […]

The mark [11] stands for this setting: Pseudomonas aeruginosa, ATCC9027.
Where [12] appears, read: Streptococcus pyogenes, ATCC19615.

Turning to `CC(C)(O/N=C(\C(=O)N[C@@H]1C(=O)N2C(C(=O)[O-])=C(C[n+]3ccccc3)CS[C@H]12)c1csc(N)n1)C(=O)O` [ceftazidime, reference compound], in assay [1], the clear zone diameter was approximately 21 mm.
On the same count and under the same terms, under gentamicin [reference compound] stands 28 mm.
As for `NC[C@H]1O[C@H](O[C@H]2[C@H](O)[C@@H](O[C@H]3O[C@H](CO)[C@@H](O)[C@H](N)[C@H]3O)[C@H](N)C[C@@H]2N)[C@H](O)[C@@H](O)[C@@H]1O` [Kanamycin, kanamycin, reference compound], the MBC in assay [2] stood at 15.6 µg/mL (≈ 32.2 µM); in assay [3] (Klebsiella oxytoca, ATCC49131), 31.2 µg/mL (≈ 64.5 µM); in assay [4] (Klebsiella pneumoniae), 31.2 µg/mL (≈ 64.5 µM); in assay [5] (setting [11]), 62.5 µg/mL (≈ 129 µM); in [6] it was 62.5 µg/mL (≈ 129 µM); in assay [7] (Shigella sonnei, ATCC25931), 7.81 ± 0.026 µg/mL (≈ 16.1 µM). The MBC is 62.5 ± 0.23 µg/mL (≈ 129 µM) in assay [8] (Streptococcus mutans) and 62.5 µg/mL (≈ 129 µM) in assay [9] (setting [12]). Further, the MIC was found to be 15.62 ± 0.011 µg/mL (≈ 32.2 µM) in [2]; 31.25 ± 0.00 µg/mL (≈ 64.5 µM) in [3] (K. oxytoca ATCC 49131); 31.2 µg/mL (≈ 64.5 µM) in assay [3] (Klebsiella oxytoca, ATCC49131); 31.25 ± 0.00 µg/mL (≈ 64.5 µM) in assay [4] (K.Pneumonia (isolate)); 31.2 µg/mL (≈ 64.5 µM) in assay [4] (Klebsiella pneumoniae); 62.5 ± 0.00 µg/mL (≈ 129 µM) in [5] (P.aeruginosa ATCC 9027). Moreover, the MIC amounted to 62.5 µg/mL (≈ 129 µM) in assay [5] (setting [11]); 62.5 µg/mL (≈ 129 µM) in assay [6]; 7.81 ± 0.026 µg/mL (≈ 16.1 µM) in assay [7] (Sh. sonnei ATCC 25931); 7.8 µg/mL (≈ 16.1 µM) in [7] (Shigella sonnei, ATCC25931, Sh. sonnei ATCC 25931); 62.5 ± 0.023 µg/mL (≈ 129 µM) in assay [8] (St. mutans (isolate)); 62.5 µg/mL (≈ 129 µM) in assay [8] (Streptococcus mutans). Further, the MIC in assay [9] (St. pyogenes ATCC 19615) is 62.5 ± 0.00 µg/mL (≈ 129 µM); in assay [9] (setting [12]), 62.5 µg/mL (≈ 129 µM); in [10], 7.8 to 62.5 µg/mL (≈ 16.1 to 129 µM).
